Where a SMILES comes first, the peptide text is derived from it.
Biological target: T1, PTB domain/c-erbB2 binding (GST-PTB domain of SHC; c-erbB2 from SKBR3 lysate) (Homo sapiens, UniProt P29353)
T1 construct: GST-PTB domain fusion proteins were expressed from recombinant baculovirus in sf9 cells; made in house; host or cells: Sf9 cells (recombinant baculovirus) for GST-PTB; c-erbB2 endogenous in SKBR3 cell lysate
T1 sequence (P29353 156-341): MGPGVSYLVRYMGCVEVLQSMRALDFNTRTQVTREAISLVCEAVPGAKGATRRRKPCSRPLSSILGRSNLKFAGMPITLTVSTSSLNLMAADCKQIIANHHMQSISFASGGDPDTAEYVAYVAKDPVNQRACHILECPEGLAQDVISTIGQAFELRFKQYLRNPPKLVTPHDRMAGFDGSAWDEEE
Test: biochemical
Conditions: Inhibition (relative inhibition scale of IC50)

SMILES	IC50
CC(C)C[C@H](NC(=O)[C@H](CCC(N)=O)NC(=O)[C@H](CC(=O)O)NC(=O)[C@H](Cc1ccccc1)NC(=O)[C@H](C)NC(=O)[C@@H]1CCCN1C(=O)[C@H](CO)NC(=O)[C@H](Cc1ccccc1)NC(=O)[C@H](C)NC(=O)[C@@H]1CCCN1)C(=O)N[C@@H](Cc1ccc(O)cc1)C(=O)N[C@@H](Cc1ccc(OP(=O)(O)O)cc1)C(=O)N[C@@H](Cc1c[nH]c2ccccc12)C(=O)N[C@@H](CC(=O)O)C(=O)N[C@@H](CCC(N)=O)C(=O)N[C@@H](CC(N)=O)C(=O)N[C@@H](CO)C(=O)N[C@@H](CO)C(=O)N[C@@H](CCC(=O)O)C(=O)N[C@@H](CCC(N)=O)C(=O)NCC(=O)O [PAFSPAFDQLY (pY) WDQNSSEQG] (HELM PEPTIDE1{P.A.F.S.P.A.F.D.Q.L.Y.[O=C([C@H](Cc1ccc(OP(=O)(O)O)cc1)N[*:1])[*:2]].W.D.Q.N.S.S.E.Q.G}$$$$V2.0)	> 50 µM
CC(C)C[C@H](NC(=O)[C@H](CC(N)=O)NC(=O)[C@H](CC(=O)O)NC(=O)[C@H](Cc1ccccc1)NC(=O)[C@H](C)NC(=O)[C@@H]1CCCN1C(=O)[C@H](CO)NC(=O)[C@H](Cc1ccccc1)NC(=O)[C@H](C)NC(=O)[C@@H]1CCCN1)C(=O)N[C@@H](Cc1ccccc1)C(=O)N[C@@H](Cc1ccc(O)cc1)C(=O)N[C@@H](Cc1ccc(OP(=O)(O)O)cc1)C(=O)N[C@@H](Cc1c[nH]c2ccccc12)C(=O)N[C@@H](CC(=O)O)C(=O)N[C@@H](CCC(N)=O)C(=O)N[C@@H](CC(N)=O)C(=O)N[C@@H](CO)C(=O)N[C@@H](CO)C(=O)N[C@@H](CCC(=O)O)C(=O)N[C@@H](CCC(N)=O)C(=O)NCC(=O)O [PAFSPAFDNLFY (pY) WDQNSSEQG] (HELM PEPTIDE1{P.A.F.S.P.A.F.D.N.L.F.Y.[O=C([C@H](Cc1ccc(OP(=O)(O)O)cc1)N[*:1])[*:2]].W.D.Q.N.S.S.E.Q.G}$$$$V2.0)	0.5 to 5 µM
CC(C)C[C@H](NC(=O)[C@H](CC(N)=O)NC(=O)[C@H](CC(=O)O)NC(=O)[C@H](Cc1ccccc1)NC(=O)[C@H](C)NC(=O)[C@@H]1CCCN1C(=O)[C@H](CO)NC(=O)[C@H](Cc1ccccc1)NC(=O)[C@H](C)NC(=O)[C@@H]1CCCN1)C(=O)N[C@@H](Cc1ccc(O)cc1)C(=O)N[C@@H](Cc1ccc(OP(=O)(O)O)cc1)C(=O)N[C@@H](Cc1c[nH]c2ccccc12)C(=O)N[C@@H](CC(=O)O)C(=O)N[C@@H](CCC(N)=O)C(=O)N[C@@H](C)C(=O)N[C@@H](CO)C(=O)N[C@@H](CO)C(=O)N[C@@H](CCC(=O)O)C(=O)N[C@@H](CCC(N)=O)C(=O)NCC(=O)O [PAFSPAFDNLY (pY) WDQASSEQG, PAFSPAFDNLY(pY)WDQASSEQG] (HELM PEPTIDE1{P.A.F.S.P.A.F.D.N.L.Y.[O=C([C@H](Cc1ccc(OP(=O)(O)O)cc1)N[*:1])[*:2]].W.D.Q.A.S.S.E.Q.G}$$$$V2.0)	0.5 to 5 µM
CC(C)C[C@H](NC(=O)[C@H](CC(N)=O)NC(=O)[C@H](CC(=O)O)NC(=O)[C@H](Cc1ccccc1)NC(=O)[C@H](C)NC(=O)[C@@H]1CCCN1C(=O)[C@H](CO)NC(=O)[C@H](Cc1ccccc1)NC(=O)[C@H](C)NC(=O)[C@@H]1CCCN1)C(=O)N[C@@H](Cc1ccc(O)cc1)C(=O)N[C@@H](Cc1ccc(OP(=O)(O)O)cc1)C(=O)N[C@@H](Cc1c[nH]c2ccccc12)C(=O)N[C@@H](C)C(=O)N[C@@H](CCC(N)=O)C(=O)N[C@@H](CC(N)=O)C(=O)N[C@@H](CO)C(=O)N[C@@H](CO)C(=O)N[C@@H](CCC(=O)O)C(=O)N[C@@H](CCC(N)=O)C(=O)NCC(=O)O [PAFSPAFDNLY (pY) WAQNSSEQG, PAFSPAFDNLY(pY)WAQNSSEQG] (HELM PEPTIDE1{P.A.F.S.P.A.F.D.N.L.Y.[O=C([C@H](Cc1ccc(OP(=O)(O)O)cc1)N[*:1])[*:2]].W.A.Q.N.S.S.E.Q.G}$$$$V2.0)	0.05 to 0.5 µM
CC(C)C[C@H](NC(=O)[C@H](CC(N)=O)NC(=O)[C@H](CC(=O)O)NC(=O)[C@H](Cc1ccccc1)NC(=O)[C@H](C)NC(=O)[C@@H]1CCCN1C(=O)[C@H](CO)NC(=O)[C@H](Cc1ccccc1)NC(=O)[C@H](C)NC(=O)[C@@H]1CCCN1)C(=O)N[C@@H](Cc1ccc(O)cc1)C(=O)N[C@@H](Cc1ccc(OP(=O)(O)O)cc1)C(=O)N[C@@H](Cc1c[nH]c2ccccc12)C(=O)N[C@@H](CC(=O)O)C(=O)N[C@@H](CC(N)=O)C(=O)N[C@@H](CC(N)=O)C(=O)N[C@@H](CO)C(=O)N[C@@H](CO)C(=O)N[C@@H](CCC(=O)O)C(=O)N[C@@H](CCC(N)=O)C(=O)NCC(=O)O [PAFSPAFDNLY (pY) WDNNSSEQG, PAFSPAFDNLY(pY)WDNNSSEQG] (HELM PEPTIDE1{P.A.F.S.P.A.F.D.N.L.Y.[O=C([C@H](Cc1ccc(OP(=O)(O)O)cc1)N[*:1])[*:2]].W.D.N.N.S.S.E.Q.G}$$$$V2.0)	0.5 to 5 µM
CC(C)C[C@H](NC(=O)[C@H](CC(N)=O)NC(=O)[C@H](CO)NC(=O)[C@H](Cc1ccccc1)NC(=O)[C@H](C)NC(=O)[C@@H]1CCCN1C(=O)[C@H](CO)NC(=O)[C@H](Cc1ccccc1)NC(=O)[C@H](C)NC(=O)[C@@H]1CCCN1)C(=O)N[C@@H](Cc1ccc(O)cc1)C(=O)N[C@@H](Cc1ccc(OP(=O)(O)O)cc1)C(=O)N[C@@H](Cc1c[nH]c2ccccc12)C(=O)N[C@@H](CC(=O)O)C(=O)N[C@@H](CCC(N)=O)C(=O)N[C@@H](CC(N)=O)C(=O)N[C@@H](CO)C(=O)N[C@@H](CO)C(=O)N[C@@H](CCC(=O)O)C(=O)N[C@@H](CCC(N)=O)C(=O)NCC(=O)O [PAFSPAFSNLY (pY) WDQNSSEQG, PAFSPAFSNLY(pY)WDQNSSEQG] (HELM PEPTIDE1{P.A.F.S.P.A.F.S.N.L.Y.[O=C([C@H](Cc1ccc(OP(=O)(O)O)cc1)N[*:1])[*:2]].W.D.Q.N.S.S.E.Q.G}$$$$V2.0)	5 to 50 µM
